Source: ChEMBL document CHEMBL6182901, “1,5-Disubstituted 1,2,3-triazoles: Molecular scaffolds for medicinal chemistry and biomolecular mimetics” (Eur J Med Chem, 2025)
Converted amounts (≈) assume the structure as drawn. Residues, ends and D or L forms follow the SMILES beside them.

How the values were obtained:
[1] = Binding affinity to c-Abl (unknown origin) assessed as inhibition constant by fluorescence based assay; parameters: species or system Homo sapiens
[2] = Binding affinity to c-Src (unknown origin) assessed as inhibition constant by fluorescence based assay; parameters: species or system Homo sapiens
[3] = tested on: HeLa; assay: Cytostatic activity against human HeLa cells measured for 72 hrs; type: functional; conditions: read-out: ED50 (the source's name)
[4] = target: Histone deacetylase; assay: Inhibition of HDAC extracted from human HeLa cell nuclear extract by fluorescence assay; type: subcellular, Nucleus
[5] = tested on: EMT6; assay: Anticancer activity against mouse EMT6 cells assessed as reduction in cell viability at 100 uM incubated for 48 hrs by XTT assay relative to control; type: functional
[6] = tested on: EMT6; assay: Anticancer activity against mouse EMT6 cells assessed as reduction in cell viability incubated for 48 hrs by XTT assay; type: functional, cell-based; conditions: EMT6, 48 h
[7] = target: Human immunodeficiency virus type 1 reverse transcriptase (Human immunodeficiency virus 1, UniProt Q72547); assay: Binding affinity to HIV-1 reverse transcriptase assessed as dissociation constant
[8] = Inhibition of bovine pancrease trypsin-catalyzed proteolysis of chromogenic substrate Boc-QAR-pNA; parameters: species or system Bos taurus
[9] = tested on: MDA-MB-231; assay: Cytotoxicity against human MDA-MB-231 cells assessed as reduction in cell viability incubated for 24 hrs by MTT assay; type: functional, cell-based; conditions: MDA-MB-231, 24 h
[10] = tested on: A549; assay: Cytotoxicity against human A549 cells assessed as reduction in cell viability incubated for 24 hrs by MTT assay; type: functional, cell-based; conditions: A549, 24 h
[11] = tested on: HepG2; assay: Cytotoxicity against human HepG2 cells assessed as reduction in cell viability incubated for 24 hrs by MTT assay; type: functional, cell-based; conditions: HepG2, 24 h
[12] = Binding affinity to Aplysia californica Acetylcholine-binding protein assessed as dissociation constant
[13] = Binding affinity to Aplysia californica Y55W Acetylcholine-binding protein assessed as dissociation constant
[14] = target: Acetylcholine-binding protein (Lymnaea stagnalis, UniProt P58154); assay: Binding affinity to Lymnaea stagnalis Acetylcholine-binding protein assessed as dissociation constant
Acetylcholine-binding protein, sequence (P58154 whole entry): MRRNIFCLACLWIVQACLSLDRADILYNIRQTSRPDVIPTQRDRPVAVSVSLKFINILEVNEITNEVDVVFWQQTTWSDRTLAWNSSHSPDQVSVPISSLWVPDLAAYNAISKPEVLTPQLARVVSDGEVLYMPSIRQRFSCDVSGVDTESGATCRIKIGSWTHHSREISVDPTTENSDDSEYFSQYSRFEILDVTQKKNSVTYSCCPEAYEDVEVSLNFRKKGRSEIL

[15] = target: D-amino-acid oxidase (Homo sapiens, UniProt P14920); assay: Binding affinity to human DAO assessed as inhibition constant
D-amino-acid oxidase, sequence (P14920 whole entry): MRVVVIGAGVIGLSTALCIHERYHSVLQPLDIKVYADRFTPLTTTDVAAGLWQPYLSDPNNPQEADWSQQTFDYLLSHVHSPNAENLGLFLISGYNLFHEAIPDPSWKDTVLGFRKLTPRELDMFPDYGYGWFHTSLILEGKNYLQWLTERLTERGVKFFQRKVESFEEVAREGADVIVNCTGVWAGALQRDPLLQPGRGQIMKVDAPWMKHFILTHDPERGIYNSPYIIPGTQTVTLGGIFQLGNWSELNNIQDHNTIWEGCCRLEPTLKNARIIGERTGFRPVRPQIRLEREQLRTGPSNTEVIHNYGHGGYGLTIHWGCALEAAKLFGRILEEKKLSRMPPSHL

[16] = tested on: SW480; assay: Anticancer activity against human SW480 cells assessed as reduction in cell viability incubated for 48 hrs by XTT assay; type: functional, cell-based; conditions: SW480, 48 h
[17] = tested on: Escherichia coli; assay: Antibacterial activity against Escherichia coli assessed as reduction in microbial growth by CLSI based broth microdilution method; type: functional
[18] = tested on: Staphylococcus aureus; assay: Antibacterial activity against Staphylococcus aureus assessed as reduction in microbial growth by CLSI based broth microdilution method; type: functional
[19] = target: C-X-C chemokine receptor type 4 (Homo sapiens, UniProt P61073); assay: Displacement of 125I-CXCL12 from CXCR4 in human CCRF-CEM cells by competitive binding assay; type: cell-based
C-X-C chemokine receptor type 4, sequence (P61073 whole entry): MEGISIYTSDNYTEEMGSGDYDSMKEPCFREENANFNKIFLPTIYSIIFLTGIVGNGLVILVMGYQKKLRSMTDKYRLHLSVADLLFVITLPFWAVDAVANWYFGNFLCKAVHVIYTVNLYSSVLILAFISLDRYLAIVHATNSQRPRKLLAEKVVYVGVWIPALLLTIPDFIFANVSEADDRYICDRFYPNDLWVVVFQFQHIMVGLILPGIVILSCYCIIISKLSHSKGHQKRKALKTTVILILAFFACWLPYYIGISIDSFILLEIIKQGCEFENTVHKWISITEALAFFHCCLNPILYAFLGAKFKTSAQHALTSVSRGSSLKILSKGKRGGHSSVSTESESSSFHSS

[20] = Inhibition of bovine pancrease trypsin by microplate reader analysis; parameters: species or system Bos taurus

SMILES: Nc1ncnc2c1c(-c1ccc(Cl)cc1)nn2-c1cccc(-c2cnnn2Cc2cccc(-c3ccccc3)c2)c1
- Ki [1]: > 125 µM
- Ki [2]: 0.044 µM

SMILES: CC(=O)OC[C@H]1O[C@@H](n2cc(CBr)nn2)[C@H](OC(C)=O)[C@@H](OC(C)=O)[C@@H]1OC(C)=O
- EC50 [3]: 3.5 µg/mL (≈ 7.11 µM)

SMILES: CC(=O)OC[C@H]1O[C@@H](n2cc(CI)nn2)[C@H](OC(C)=O)[C@@H](OC(C)=O)[C@@H]1OC(C)=O
- EC50 [3]: 2 µg/mL (≈ 3.71 µM)

SMILES: CC(=O)OC[C@H]1O[C@@H](n2nncc2CBr)[C@H](OC(C)=O)[C@@H](OC(C)=O)[C@@H]1OC(C)=O
- EC50 [3]: 4 µg/mL (≈ 8.13 µM)

SMILES: CCC(=O)CCCCC[C@@H]1NC(=O)[C@@H](C(C)(C)C)n2cc(nn2)[C@H]([C@@H](C)CC)NC(=O)[C@H](Cc2c[nH]c3ccccc23)NC1=O
- IC50 [4]: < 0.1 µM

SMILES: CC1(C)CC[C@]2(C(=O)OCc3cnnn3-c3ccc([N+](=O)[O-])cc3)CC[C@]3(C)C(=CC[C@@H]4[C@@]5(C)CC[C@H](O)C(C)(C)[C@@H]5CC[C@]43C)[C@@H]2C1
- Activity [5]: 74%
- IC50 [6]: 74 µM

SMILES: N[C@H]1C[C@@H](N)[C@H](OCc2cnnn2CC(=O)c2ccc(-c3ccccc3)cc2)C1
- Kd [7]: 3.3 µM

SMILES: CC[C@H](C)[C@@H]1NC(=O)[C@@H]2CCCN2C(=O)[C@@H]2CCCN2C(=O)[C@H]([C@@H](C)CC)NC(=O)[C@H](CO)NC(=O)[C@H](CCCCN)NC(=O)[C@@H]([C@H](C)O)NC(=O)[C@@H](NC(=O)[C@H](CCCNC(=N)N)NC(=O)CN)CSSC[C@@H](C(=O)N[C@@H](Cc2ccccc2)C(=O)N2CCC[C@H]2C(=O)N[C@@H](CC(=O)O)C(=O)O)NC1=O
- Ki [8]: 0.00148 µM

SMILES: O=C(Nc1ccccc1)[C@@H]1C[C@H]2CCc3cnnn3CCOc3cccc(c3)C(=O)N1C2
- IC50 [9]: 43.7 µM
- IC50 [10]: 46.3 µM
- IC50 [11]: 36.3 µM

SMILES: NC(=O)[C@@H]1C[C@H]2CCc3cnnn3CCOc3cccc(c3)C(=O)N1C2
- IC50 [9]: 28 µM
- IC50 [10]: 41.3 µM
- IC50 [11]: 34.7 µM

SMILES: C#Cc1cccc(-n2nc(-c3ccc(Cl)cc3)c3c(N)ncnc32)c1
- Ki [1]: 7.15 µM
- Ki [2]: 1.45 µM

SMILES: N[C@H]1C[C@@H](N)[C@H](OCc2cnnn2CC(=O)c2ccc3ccccc3c2)C1
- Kd [7]: 1.9 µM

SMILES: Cn1c(=O)cc(OCc2cn(C3CC4CC3[N+]4(C)C)nn2)c2ccccc21 (stereo unspecified)
- Kd [12]: 0.024 µM
- Kd [13]: 0.017 µM
- Kd [14]: 0.00096 µM

SMILES: Cc1cccc(-n2nncc2COC(=O)[C@]23CCC(C)(C)C[C@H]2C2=CC[C@@H]4[C@@]5(C)CC[C@H](O)C(C)(C)[C@@H]5CC[C@@]4(C)[C@]2(C)CC3)c1
- IC50 [6]: 60 µM

SMILES: CC(C)CNC(=O)[C@@H]1C[C@H]2CCc3cnnn3CCOc3cccc(c3)C(=O)N1C2
- IC50 [9]: 43.2 µM
- IC50 [10]: 32.2 µM
- IC50 [11]: 37.3 µM

SMILES: CC[C@H](C)[C@@H]1NC(=O)[C@@H]2CCCN2C(=O)[C@@H]2CCCN2C(=O)[C@H]([C@@H](C)CC)NC(=O)[C@H](CO)NC(=O)[C@H](CCCCN)NC(=O)[C@@H]([C@H](C)O)NC(=O)[C@@H](NC(=O)[C@H](CCCNC(=N)N)NC(=O)CN)CCn2nncc2C[C@@H](C(=O)N[C@@H](Cc2ccccc2)C(=O)N2CCC[C@H]2C(=O)N[C@@H](CC(=O)O)C(=O)O)NC1=O
- Ki [8]: 0.0024 µM

SMILES: O=C(Cn1nncc1CO/N=C(/Cc1ccc(O)cc1)C(=O)O)N[C@@H](Cc1ccccc1)C(=O)O
- Ki [15]: 0.4 µM

SMILES: CC1(C)CC[C@]2(C(=O)OCc3cn(-c4ccc(Cl)cc4)nn3)CC[C@]3(C)C(=CC[C@@H]4[C@@]5(C)CC[C@H](O)C(C)(C)[C@@H]5CC[C@]43C)[C@@H]2C1
- IC50 [6]: 91.8 µM
- IC50 [16]: 76 µM

SMILES: CC[C@H]1COC(=O)C[C@@H](O)[C@H](C)[C@@H](O[C@@H]2OC[C@@H](O)[C@H](N(C)C)[C@H]2O)[C@@H](CN(Cc2ccccc2)Cc2cnnn2-c2cnc3ccccc3c2)C[C@@H](C)C(=O)/C=C/C(C)=C/[C@@H]1CO
- MIC [17]: 464 µg/mL
- MIC [18]: 4 µg/mL

SMILES: Cn1c(=O)cc(OCc2cnnn2C2C[C@@H]3C[C@H]2[N+]3(C)C)c2ccccc21 (stereo partly specified)
- Kd [12]: 0.331 µM
- Kd [13]: 0.0981 µM
- Kd [14]: 0.00164 µM

SMILES: Nc1ncnc2c1c(-c1ccc(Cl)cc1)nn2-c1cccc(-c2cnnn2Cc2ccccc2)c1
- Ki [1]: > 125 µM
- Ki [2]: 0.207 µM

SMILES: [N-]=[N+]=NCC(=O)N[C@@H](Cc1ccccc1)C(=O)O
- Ki [15]: 0.001 µM

SMILES: O=C(O)[C@@H]1C[C@H]2CCc3cnnn3CCOc3cccc(c3)C(=O)N1C2
- IC50 [9]: 34.3 µM
- IC50 [10]: 37.1 µM
- IC50 [11]: 44.9 µM

SMILES: CC(=O)N[C@@H](CCCNC(=N)N)C(=O)N[C@@H](C)C(=O)N[C@H]1CCn2nncc2C[C@@H](C(=O)O)NC(=O)[C@H](Cc2c[nH]cn2)NC(=O)[C@H](Cc2ccc3ccccc3c2)NC(=O)[C@H](CCCNC(=N)N)NC(=O)C1
- IC50 [19]: 0.022 µM

SMILES: CC[C@H](C)[C@@H]1NC(=O)[C@H](CO)NC(=O)[C@@H](CCCCN)NC(=O)[C@@H]([C@H](C)O)NC(=O)[C@@H](NC(=O)[C@H](CCCNC(=N)N)NC(=O)CN)CCn2cc(nn2)C[C@@H](C(=O)N[C@@H](Cc2ccccc2)C(=O)N2CCC[C@H]2C(=O)N[C@@H](CC(=O)O)C(=O)O)NC(=O)[C@@H]([C@@H](C)CC)NC(=O)[C@@H]2CCCN2C(=O)[C@@H]2CCCN2C1=O
- Ki [8]: 1.91 µM

SMILES: N[C@H]1C[C@@H](N)[C@H](OCc2cnnn2CC(=O)c2ccc(-c3ccccn3)s2)C1
- Kd [7]: 3.7 µM

SMILES: CC1(C)CC[C@]2(C(=O)OCc3cn(-c4ccc(Br)cc4)nn3)CC[C@]3(C)C(=CC[C@@H]4[C@@]5(C)CC[C@H](O)C(C)(C)[C@@H]5CC[C@]43C)[C@@H]2C1
- IC50 [6]: 91.8 µM
- IC50 [16]: 29.6 µM

SMILES: CC(=O)N[C@@H](CCCNC(=N)N)C(=O)N[C@@H](C)C(=O)N[C@H]1CCn2cc(nn2)C[C@@H](C(=O)O)NC(=O)[C@H](Cc2c[nH]cn2)NC(=O)[C@H](Cc2ccc3ccccc3c2)NC(=O)[C@H](CCCNC(=N)N)NC(=O)C1
- IC50 [19]: 0.018 µM

SMILES: CC[C@H](C)[C@@H]1NC(=O)[C@@H]2CCCN2C(=O)[C@H](C)n2nncc2[C@H]([C@@H](C)CC)NC(=O)[C@H](CO)NC(=O)CNC(=O)[C@H]([C@@H](C)O)NC(=O)[C@@H](NC(=O)[C@H](CCCNC(=N)N)NC(=O)CN)CSSC[C@@H](C(=O)N[C@@H](Cc2ccccc2)C(=O)N2CCC[C@H]2C(=O)N[C@@H](CC(=O)O)C(=O)O)NC1=O (HELM PEPTIDE1{G.R.C.T.G.S.[CC[C@H](C)[C@H](N[*:1])c1cnnn1[C@@H](C)C(=O)[*:2]].P.I.C.F.P.D}$PEPTIDE1,PEPTIDE1,3:R3-10:R3$$$V2.0)
- Ki [20]: 0.034 µM

SMILES: CC[C@H](C)[C@@H]1NC(=O)[C@H](CO)NC(=O)[C@H](CCCCN)NC(=O)[C@H]([C@@H](C)O)NC(=O)[C@@H](NC(=O)[C@H](CCCNC(=N)N)NC(=O)CN)CSSC[C@@H](C(=O)N[C@@H](Cc2ccccc2)C(=O)N2CCC[C@H]2C(=O)N[C@@H](CC(=O)O)C(=O)O)NC(=O)[C@H]([C@@H](C)CC)NC(=O)[C@@H]2CCCN2C(=O)[C@H](C)NC1=O (HELM PEPTIDE1{G.R.C.T.K.S.I.A.P.I.C.F.P.D}$PEPTIDE1,PEPTIDE1,3:R3-11:R3$$$V2.0)
- Ki [20]: 0.178 µM

SMILES: CC[C@H](C)[C@@H]1NC(=O)[C@H](C)NC(=O)[C@@H]2CCCN2C(=O)[C@H]([C@@H](C)CC)NC(=O)[C@H](CO)NC(=O)[C@H](CCCCN)NC(=O)[C@H]([C@@H](C)O)NC(=O)[C@@H](NC(=O)[C@H](CCCNC(=N)N)NC(=O)CN)CSSC[C@@H](C(=O)N[C@@H](Cc2ccccc2)C(=O)N2CCC[C@H]2C(=O)N[C@@H](CC(=O)O)C(=O)O)NC1=O (HELM PEPTIDE1{G.R.C.T.K.S.I.P.A.I.C.F.P.D}$PEPTIDE1,PEPTIDE1,3:R3-11:R3$$$V2.0)
- Ki [20]: 0.0032 µM

SMILES: CC[C@H](C)[C@@H]1NC(=O)[C@H](C)n2nncc2[C@@H]2CCCN2C(=O)[C@H]([C@@H](C)CC)NC(=O)[C@H](CO)NC(=O)[C@H](CCCCN)NC(=O)[C@H]([C@@H](C)O)NC(=O)[C@@H](NC(=O)[C@H](CCCNC(=N)N)NC(=O)CN)CSSC[C@@H](C(=O)N[C@@H](Cc2ccccc2)C(=O)N2CCC[C@H]2C(=O)N[C@@H](CC(=O)O)C(=O)O)NC1=O (HELM PEPTIDE1{G.R.C.T.K.S.I.[C[C@@H](C(=O)[*:2])n1nncc1[C@@H]1CCCN1[*:1]].I.C.F.P.D}$PEPTIDE1,PEPTIDE1,3:R3-10:R3$$$V2.0)
- Ki [20]: 0.255 µM
